# Data as given in patent US4645769A, “1-oxa-1-dethia-cephalosporin compounds and antibacterial agent comprising the same” (Merck & Co., Inc., priority 1985, dated 1987).
# Where a name gives a salt, the structure may show the parent alone.
# Legend:
# [1] = tested on: Pseudomonas aeruginosa MB-3833; assay: Minimum Inhibitory Concentration (MIC), antibacterial spectrum in vitro; type: cell-based; settings: Pseudomonas aeruginosa MB-3833; for MIC: MB3833, read-out: Minimum Inhibitory Concentration (MIC)
# [2] = tested on: Pseudomonas aeruginosa E-2; assay: as above; type: cell-based; settings: Pseudomonas aeruginosa E-2; for MIC: E2, read-out: Minimum Inhibitory Concentration (MIC)
# [3] = tested on: Klebsiella pneumoniae PCI 602; assay: as above; type: cell-based; settings: Klebsiella pneumoniae PCI 602; for MIC: PCI602, read-out: Minimum Inhibitory Concentration (MIC)
# [4] = tested on: Streptococcus faecalis ATCC 8043; assay: as above; type: cell-based; settings: Streptococcus faecalis ATCC 8043; for MIC: Enterococcus faecalis, ATCC8043, read-out: Minimum Inhibitory Concentration (MIC)
# [5] = tested on: Esherichia coli NIHJ JC-2; assay: as above; type: cell-based
# [6] = tested on: Citrobacter freundii GN-346; assay: as above; type: cell-based; settings: Citrobacter freundii GN-346; for MIC: GN346, read-out: Minimum Inhibitory Concentration (MIC)
# [7] = tested on: Salmonella typhimurium LT-2; assay: as above; type: cell-based; settings: Salmonella typhimurium LT-2; for MIC: Salmonella enterica, read-out: Minimum Inhibitory Concentration (MIC)
# [8] = tested on: Staphylococcus aureus 209 P JC-1; assay: as above; type: cell-based; settings: Staphylococcus aureus 209 P JC-1; for MIC: 209PJC1, read-out: Minimum Inhibitory Concentration (MIC)
# Proteus morganii 1510 = assay: as above; type: cell-based; settings: Proteus morganii 1510; for MIC: Morganella morganii, read-out: Minimum Inhibitory Concentration (MIC)
# Pseudomonas aeruginosa = assay: Antibacterial activity against Pseudomonas aeruginosa (from Table 1); type: cell-based; settings: in words
# Streptococcus faecalis = assay: Antibacterial activity against Streptococcus faecalis (statement in words); type: cell-based
# [9] = Concentration in Blood Serum after subcutaneous dosing (bioassay using Escherichia coli); type: in vivo; settings: mouse, sc, 25 mg/Kg subcutaneously, mice
# Method: The concentration of the compound in the serum was determined by bioassay using Escherichia coli as assay microorganism.
Structure (SMILES),MIC [1],MIC [2],MIC [3],MIC [4],MIC [5],MIC [6],MIC [7],MIC [8],MIC (Proteus morganii 1510),effectiveness against Pseudomonas aeruginosa (Pseudomonas aeruginosa),also measured
"CCN1CCN(C(=O)NC(C(=O)NC2C(=O)N3C(C(=O)[O-])=C(CSc4cc[n+](CC(=O)O)cc4)COC23)c2csc(N)n2)C(=O)C1=O (racemic) [Compound 21, (6R,7R)-7-(DL-2-(2-Aminothiazole-4-yl)-2-(4-ethyl-2,3-dioxopiperazine-1-ylcarboxamide)acetamide)-3-(1-carboxymethylpyridinium-4-yl-thiomethyl)-1-oxa-1-dethiaceph-3-em-4-carboxylate (Sodium Salt)]",> 100 µg/mL,> 100 µg/mL,0.05 µg/mL,50 µg/mL,0.05 µg/mL,> 100 µg/mL,0.1 µg/mL,1.56 µg/mL,12.5 µg/mL,–,–
"CC[n+]1ccc(SCC2=C(C(=O)[O-])N3C(=O)C(NC(=O)C(=NOC(C)(C)C(=O)O)c4csc(N)n4)C3OC2C)cc1 [Compound 2, (6R,7R)-7-((Z)-2-(2-Aminothiazole-4-yl)-2-(2-carboxyprop-2-oxyimino)acetamide)-(2S)-2-methyl-3-(1-ethyl-pyridinium-4-ylthiomethyl)-1-oxa-1-dethiaceph-3-em-4-carboxylate (Sodium Salt)]",3.13 µg/mL,3.13 µg/mL,0.2 µg/mL,50 µg/mL,0.2 µg/mL,0.78 µg/mL,< 0.025 µg/mL,0.78 µg/mL,0.1 µg/mL,effective against Pseudomonas aeruginosa,–
"CC1OC2C(NC(=O)C(=NOC(C)(C)C(=O)O)c3csc(N)n3)C(=O)N2C(C(=O)[O-])=C1CSc1cc[n+](CCF)cc1 [Compound 3, (6R,7R)-7-((Z)-2-(2-Aminothiazole-4-yl)-2-(2-carboxyprop-2-oxyimino)acetamide)-(2S)-2-methyl-3-(1-(2-fluoroethyl)pyridinium-4-ylthiomethyl)-1-oxa-1-dethiaceph-3-em-4-carboxylate (Sodium Salt)]",1.56 µg/mL,1.56 µg/mL,0.2 µg/mL,25 µg/mL,0.2 µg/mL,0.78 µg/mL,< 0.025 µg/mL,0.78 µg/mL,0.2 µg/mL,effective against Pseudomonas aeruginosa,–
"CC1OC2C(NC(=O)C(=NOC(C)(C)C(=O)O)c3csc(N)n3)C(=O)N2C(C(=O)[O-])=C1CSc1cc[n+](CC(F)(F)F)cc1 [Compound 4, (6R,7R)-7-((Z)-2-(2-Aminothiazole-4-yl)-2-(2-carboxyprop-2-oxyimino)acetamide)-(2S)-2-methyl-3-(1-(2,2,2-trifluoroethyl)pyridinium-4-ylthionethyl)-1-oxa-1-dethia-3-ceph-4-carboxylate (Sodium Salt)]",3.13 µg/mL,3.13 µg/mL,0.39 µg/mL,50 µg/mL,0.2 µg/mL,1.56 µg/mL,0.05 µg/mL,1.56 µg/mL,0.2 µg/mL,effective against Pseudomonas aeruginosa,–
"CC1OC2C(NC(=O)C(=NOC(C)(C)C(=O)O)c3csc(N)n3)C(=O)N2C(C(=O)[O-])=C1CSc1cc[n+](CC(=O)O)cc1 [Compound 5, (6R,7R)-7-((Z)-2-(2-Aminothiazole-4-yl)-2-(2-carboxyprop-2-oxyimino)acetamide)-(2S)-2-methyl-3-(1-carboxymethylpyridinium-4-ylthiomethyl-1-oxa-1-dethiaceph-3-em-4-carboxylate (Sodium Salt)]",3.13 µg/mL,6.25 µg/mL,0.39 µg/mL,50 µg/mL,0.39 µg/mL,3.13 µg/mL,0.1 µg/mL,12.5 µg/mL,1.56 µg/mL,–,–
"CC1OC2C(NC(=O)C(=NOC(C)(C)C(=O)O)c3csc(N)n3)C(=O)N2C(C(=O)[O-])=C1CSc1cc[n+](C(CF)CF)cc1 [Compound 17, (6R,7R)-7-((Z)-2-(2-Aminothiazole-4-yl)-2-(2-carboxyprop-2-oxyimino)acetamide)-(2S)-2-methyl-3-(1-(1,3-difluoroprop-2-yl)-pyridinium-4-ylthiomethyl)-1-oxa-1-dethiaceph-3-em-4-carboxylate (Sodium Salt)]",1.56 µg/mL,1.56 µg/mL,0.05 µg/mL,25 µg/mL,0.025 µg/mL,1.56 µg/mL,< 0.025 µg/mL,0.78 µg/mL,0.2 µg/mL,–,–
"C[C@@H]1O[C@@H]2[C@@H](NC(=O)/C(=N\OCC(=O)[O-])c3csc(N)n3)C(=O)N2C(C(=O)[O-])=C1CSc1cc[n+](C)cc1.[Na+] [Compound 18, (6R,7R)-7-((Z)-2-(2-Aminothiazole-4-yl)-2-carboxymethoxyiminoacetamide)-(2S)-2-methyl-3-(1-methylpyridinium-4-ylthiomethyl)-1-oxa-1-dethiaceph-3-em-4-carboxylate (Sodium Salt)]",–,–,–,–,–,–,–,–,–,–,Minimum Inhibitory Concentration (MIC) [1]: 1.56 µg/mL; Minimum Inhibitory Concentration (MIC) [2]: 1.56 µg/mL; Minimum Inhibitory Concentration (MIC) [3]: 0.10 µg/mL; Minimum Inhibitory Concentration (MIC) [4]: 25 µg/mL; Minimum Inhibitory Concentration (MIC) [5]: 0.05 µg/mL; Minimum Inhibitory Concentration (MIC) [6]: 1.56 µg/mL; Minimum Inhibitory Concentration (MIC) [7]: < 0.025 µg/mL; Minimum Inhibitory Concentration (MIC) [8]: 0.78 µg/mL; Minimum Inhibitory Concentration (MIC) (Proteus morganii 1510): 0.10 µg/mL

# The next lines start with results.
MIC [1],MIC [2],MIC [3],MIC [4],MIC [5],MIC [6],MIC [7],MIC [8],MIC (Proteus morganii 1510),Structure (SMILES),effectiveness against Pseudomonas aeruginosa (Pseudomonas aeruginosa),also measured
100 µg/mL,25 µg/mL,0.2 µg/mL,> 100 µg/mL,0.1 µg/mL,25 µg/mL,0.2 µg/mL,0.39 µg/mL,6.25 µg/mL,"CCN1CCN(C(=O)NC(C(=O)NC2C(=O)N3C(C(=O)[O-])=C(CSc4cc[n+](C)cc4)COC23)c2csc(N)n2)C(=O)C1=O (racemic) [Compound 20, (6R,7R)-7-(DL-2-(2-Aminothiazole-4-yl)-2-(4-ethyl-2,3-dioxopiperazine-1-ylcarboxamide)acetamide)-3-(1-methylpyridinium-4-ylthiomethyl)-1-oxa-1-dethiaceph-3-em-4-carboxylate (Sodium Salt)]",–,–
12.5 µg/mL,12.5 µg/mL,0.025 µg/mL,12.5 µg/mL,< 0.025 µg/mL,6.25 µg/mL,< 0.025 µg/mL,0.39 µg/mL,0.78 µg/mL,"CON=C(C(=O)NC1C(=O)N2C(C(=O)[O-])=C(CSc3cc[n+](CC(=O)O)cc3)C(C)OC12)c1csc(N)n1 [Compound 7, (6R,7R)-7-((Z)-2-(2-Aminothiazole-4-yl)-2-methoxyiminoacetamide)-(2S)-2-methyl-3-(1-carboxymethylpyridinium-4-ylthiomethyl)-1-oxa-1-dethiaceph-3-em-4-carboxylate (Sodium Salt)]",–,effectiveness against Streptococcus faecalis (Streptococcus faecalis): effective against Streptococcus faecalis
3.13 µg/mL,3.13 µg/mL,0.1 µg/mL,50 µg/mL,0.1 µg/mL,12.5 µg/mL,< 0.025 µg/mL,6.25 µg/mL,0.78 µg/mL,"CC1OC2C(NC(=O)C(=NOCC(=O)O)c3csc(N)n3)C(=O)N2C(C(=O)[O-])=C1CSc1cc[n+](CC(=O)O)cc1 [Compound 9, (6R,7R)-7-((Z)-2-(2-Aminothiazole-4-yl)-2-carboxymethoxyiminoacetamide)-(2S)-2-methyl-3-(1-carboxymethylpyridinium-4-ylthiomethyl)-1-oxa-1-dethiaceph-3-em-4-carboxylate (Sodium Salt)]",effective against Pseudomonas aeruginosa,concentration at 0.5 h ([9]; 1/2 hour): 25000 ng/mL; concentration at 0.25 h ([9]; 1/4 hour): 32000 ng/mL; concentration at 5 min ([9]; 1/12 hour): 36000 ng/mL; concentration at 1 h ([9]; 1 hour): 5100 ng/mL
3.13 µg/mL,3.13 µg/mL,0.1 µg/mL,50 µg/mL,0.1 µg/mL,50 µg/mL,0.5 µg/mL,6.25 µg/mL,6.25 µg/mL,"CC(C)(ON=C(C(=O)NC1C(=O)N2C(C(=O)[O-])=C(CSc3cc[n+](CCF)cc3)COC12)c1csc(N)n1)C(=O)O [Compound 15, (6R,7R)-7-((Z)-2-(2-Aminothiazole-4-yl)-2-2-carboxyprop-2-oxyimino)acetamide)-3-((2-fluoroethyl)pyridinium-4-ylthiomethyl)-1-oxa-1-dethiaceph-3-em-4-carboxylate]",effective against Pseudomonas aeruginosa,–
3.13 µg/mL,3.13 µg/mL,0.39 µg/mL,> 100 µg/mL,0.78 µg/mL,1.56 µg/mL,0.1 µg/mL,3.13 µg/mL,0.2 µg/mL,"CC1OC2C(NC(=O)C(=NOCC(=O)O)c3csc(N)n3)C(=O)N2C(C(=O)[O-])=C1CSc1cc[n+](CCF)cc1 [Compound 19, (6R,7R)-7-((Z)-2-(2-Aminothiazole-4-yl)-2-carboxymethoxyiminoacetamide)-(2S)-2-methyl-3-(1-(2-fluoroethyl)pyridinium-4-ylthiomethyl)-1-oxa-1-dethiaceph-3-em-4-carboxylate (Sodium Salt)]",–,–
